Values joined by “and” are separate entries in the source; they are usually repeats but may differ in a detail not shown here. Equal values may be shown once.
Test: molar heat capacity at constant volume
Conditions: Liquid, Vacuum adiabatic calorimetry

FC(F)C(F)(F)OCC(F)(F)F [2,2,2-trifluoroethyl 1,1,2,2-tetrafluoroethyl ether]
Conditions	molar heat capacity at constant volume
279.15 K, 5663 kPa	189.85 J/K/mol
280.15 K, 6663 kPa	187.85 J/K/mol
280.15 K, 6673 kPa	191.45 J/K/mol
281.15 K, 7673 kPa	194.25 J/K/mol
281.15 K, 7685 kPa	189.25 J/K/mol
282.15 K, 8685 kPa	190.65 J/K/mol
282.15 K, 8696 kPa	193.65 J/K/mol
283.15 K, 9695 kPa	191.85 J/K/mol
283.15 K, 9705 kPa	192.45 J/K/mol
284.15 K, 10704 kPa	193.45 J/K/mol
284.15 K, 10712 kPa	191.85 J/K/mol
285.15 K, 11710 kPa	191.65 J/K/mol
285.15 K, 11717 kPa	193.65 J/K/mol
286.15 K, 12714 kPa	193.85 J/K/mol
286.15 K, 12720 kPa	191.65 J/K/mol
287.15 K, 13718 kPa	193.05 J/K/mol
287.15 K, 13722 kPa	194.65 J/K/mol
288.15 K, 14719 kPa	192.25 J/K/mol
288.15 K, 14722 kPa	193.05 J/K/mol
289.15 K, 15719 kPa	193.65 J/K/mol
289.15 K, 15720 kPa	193.25 J/K/mol
290.15 K, 16716 kPa	193.45 J/K/mol
290.15 K, 16717 kPa	195.85 J/K/mol
291.15 K, 17711 kPa	193.65 J/K/mol
291.15 K, 17712 kPa	194.45 J/K/mol
292.15 K, 18703 kPa	193.05 J/K/mol
292.15 K, 18704 kPa	193.05 J/K/mol
293.15 K, 19694 kPa	193.45 J/K/mol and 195.45 J/K/mol
294.15 K, 20683 kPa	194.85 J/K/mol and 193.25 J/K/mol
295.15 K, 21669 kPa	192.45 J/K/mol and 193.65 J/K/mol
296.15 K, 22653 kPa	195.05 J/K/mol
296.15 K, 22654 kPa	195.85 J/K/mol
297.15 K, 23636 kPa	193.85 J/K/mol and 194.45 J/K/mol
298.15 K, 24616 kPa	193.85 J/K/mol
298.15 K, 24617 kPa	193.85 J/K/mol
299.15 K, 25595 kPa	195.45 J/K/mol
299.15 K, 25596 kPa	196.45 J/K/mol
300.15 K, 26572 kPa	194.05 J/K/mol
300.15 K, 26573 kPa	193.85 J/K/mol
301.15 K, 6294 kPa	197.05 J/K/mol
301.15 K, 27548 kPa	196.25 J/K/mol and 195.85 J/K/mol
302.15 K, 7147 kPa	196.45 J/K/mol
302.15 K, 28521 kPa	195.05 J/K/mol
302.15 K, 28522 kPa	193.65 J/K/mol
303.15 K, 8010 kPa	194.05 J/K/mol
303.15 K, 8015 kPa	197.65 J/K/mol
303.15 K, 29493 kPa	196.65 J/K/mol and 196.85 J/K/mol
304.15 K, 8873 kPa	195.25 J/K/mol
304.15 K, 8874 kPa	194.45 J/K/mol
305.15 K, 9734 kPa	197.65 J/K/mol and 197.85 J/K/mol
306.15 K, 10592 kPa	195.45 J/K/mol
306.15 K, 10594 kPa	196.05 J/K/mol
307.15 K, 11449 kPa	197.25 J/K/mol
307.15 K, 11452 kPa	197.05 J/K/mol
308.15 K, 12303 kPa	195.25 J/K/mol
308.15 K, 12308 kPa	196.25 J/K/mol
309.15 K, 13157 kPa	197.45 J/K/mol
309.15 K, 13163 kPa	197.45 J/K/mol
310.15 K, 14009 kPa	195.65 J/K/mol
310.15 K, 14016 kPa	196.45 J/K/mol
311.15 K, 14859 kPa	196.45 J/K/mol
311.15 K, 14867 kPa	197.05 J/K/mol
312.15 K, 15708 kPa	198.05 J/K/mol
312.15 K, 15718 kPa	197.25 J/K/mol
313.15 K, 16557 kPa	196.85 J/K/mol
313.15 K, 16566 kPa	197.05 J/K/mol
314.15 K, 17405 kPa	198.05 J/K/mol
314.15 K, 17414 kPa	196.85 J/K/mol
315.15 K, 18252 kPa	199.05 J/K/mol
315.15 K, 18260 kPa	196.45 J/K/mol
316.15 K, 19097 kPa	197.45 J/K/mol
316.15 K, 19105 kPa	197.85 J/K/mol
317.15 K, 19942 kPa	200.86 J/K/mol
317.15 K, 19949 kPa	198.45 J/K/mol
318.15 K, 20785 kPa	198.25 J/K/mol
318.15 K, 20791 kPa	198.65 J/K/mol
319.15 K, 21626 kPa	197.85 J/K/mol
319.15 K, 21632 kPa	197.65 J/K/mol
320.15 K, 22467 kPa	200.45 J/K/mol
320.15 K, 22471 kPa	199.25 J/K/mol
321.15 K, 23306 kPa	199.25 J/K/mol
321.15 K, 23311 kPa	198.45 J/K/mol
322.15 K, 24144 kPa	199.05 J/K/mol
322.15 K, 24148 kPa	198.05 J/K/mol
323.15 K, 24980 kPa	199.65 J/K/mol
323.15 K, 24983 kPa	199.05 J/K/mol
324.15 K, 25816 kPa	200.66 J/K/mol
324.15 K, 25819 kPa	201.06 J/K/mol
325.15 K, 26650 kPa	199.05 J/K/mol
325.15 K, 26653 kPa	197.05 J/K/mol
326.15 K, 27482 kPa	200.86 J/K/mol
326.15 K, 27484 kPa	199.85 J/K/mol
327.15 K, 28313 kPa	199.65 J/K/mol
327.15 K, 28315 kPa	198.65 J/K/mol
328.15 K, 29144 kPa	200.66 J/K/mol
328.15 K, 29145 kPa	201.86 J/K/mol
329.15 K, 7678 kPa	198.25 J/K/mol
329.15 K, 7689 kPa	201.66 J/K/mol
329.15 K, 29973 kPa	201.66 J/K/mol
329.15 K, 29975 kPa	200.25 J/K/mol
330.15 K, 8385 kPa	206.66 J/K/mol
330.15 K, 8394 kPa	203.66 J/K/mol
331.15 K, 9091 kPa	203.86 J/K/mol
331.15 K, 9099 kPa	203.26 J/K/mol
332.15 K, 9796 kPa	205.26 J/K/mol
332.15 K, 9803 kPa	203.46 J/K/mol
333.15 K, 10500 kPa	204.86 J/K/mol
333.15 K, 10506 kPa	204.26 J/K/mol
334.15 K, 11204 kPa	205.86 J/K/mol
334.15 K, 11209 kPa	204.66 J/K/mol
335.15 K, 11908 kPa	206.26 J/K/mol
335.15 K, 11912 kPa	205.06 J/K/mol
336.15 K, 12610 kPa	205.26 J/K/mol
336.15 K, 12614 kPa	204.26 J/K/mol
337.15 K, 13313 kPa	208.46 J/K/mol
337.15 K, 13315 kPa	206.66 J/K/mol
338.15 K, 14014 kPa	204.26 J/K/mol
338.15 K, 14016 kPa	204.66 J/K/mol
339.15 K, 14714 kPa	208.46 J/K/mol
339.15 K, 14716 kPa	206.06 J/K/mol
340.15 K, 15413 kPa	207.06 J/K/mol
340.15 K, 15416 kPa	206.86 J/K/mol
341.15 K, 16111 kPa	207.06 J/K/mol
341.15 K, 16114 kPa	208.06 J/K/mol

From the NIST ThermoML archive (doi:10.1007/s10765-010-0766-0)
